Structures can show the parent of a compound that is named as a salt.
Key:
Type in all cases: functional, cell-based
[1] = tested on: 4T1; assay: Cytotoxicity against mouse 4T1 cells assessed as cell viability by MTT assay
[2] = tested on: MCF7; assay: Cytotoxicity against human MCF7 cells assessed as cell viability by MTT assay
[3] = tested on: MDA-MB-231; assay: Cytotoxicity against human MDA-MB-231 cells assessed as cell viability by MTT assay
[4] = tested on: HeLa; assay: Cytotoxicity against human HeLa cells assessed as cell viability by MTT assay
[5] = tested on: A549; assay: Cytotoxicity against human A549 cells assessed as cell viability by MTT assay

Structure (SMILES)	IC50 [1] [µM]	IC50 [2] [µM]	IC50 [3] [µM]	IC50 [4] [µM]	IC50 [5] [µM]
COc1cccc2c1C(=O)c1c(O)c3c(c(O)c1C2=O)C[C@@](O)(C(=O)CO)C[C@@H]3O[C@H]1C[C@H](N)[C@H](O)[C@H](C)O1 [DOXORUBICIN HYDROCHLORIDE]	2.4	–	–	–	–
O=C1C[C@@H](c2ccccc2)Oc2cc(O)c([C@@H](/C=C/C[C@@H](O)CCc3ccccc3)c3ccccc3)c(O)c21	–	4.16	1.48	0.67	3.27
O=C1C[C@H](c2ccccc2)Oc2cc(O)c([C@@H](/C=C/C[C@@H](O)CCc3ccccc3)c3ccccc3)c(O)c21	–	8.5	4.05	2	5.27

Reference: ChEMBL document CHEMBL5505987 (Eur J Med Chem, 2024)
